# Data from patent US20240100053A1, “PHARMACEUTICAL COMPOSITION” (priority 2021, published 2024).
# Assays:
# [1] = tested on: PK-1 cells; test: Cell proliferation by ATP assay, FGFR4-high PK-1 cells; assay type: cell-based; settings: PK-1 cells (high FGFR4); 250 nM, 500 nM, 1 μM or 2 μM; 72 hours; volume-dependent manner; FIG. 3A
# Protocol: (§1) After 72 hours of incubation, the effect on cell proliferation was examined by ATP assay.
# [2] = tested on: PK-45P cells; test: Cell proliferation by ATP assay, FGFR4-low PK-45P cells; assay type: cell-based; settings: PK-45P cells (low FGFR4); 250 nM to 2 μM; 72 hours; FIG. 3A
# Protocol: as §1
# [3] = tested on: PK-1 cells and PK-45P cells; test: Cytotoxicity by FACS using annexin V and PI; assay type: cell-based; settings: 2 μM, FIG. 3B
# [4] = tested on: PK-1 cells and PK-45P cells; test: Cell cycle by FACS; assay type: cell-based; settings: after addition of BLU9931, FIG. 3C
# [5] = tested on: ERK, AKT, and STAT3 downstream of FGF19/FGFR4 signaling; test: Immunoblotting of ERK, AKT, STAT3 in PK-1 cells; assay type: cell-based; settings: 2 μM, FIG. 4
# [6] = tested on: ERK, AKT, and STAT3 downstream of FGF19/FGFR4 signaling; test: Immunoblotting of ERK, AKT, STAT3 in PK-45P cells; assay type: cell-based; settings: FIG. 4
# [7] = tested on: PK-1 cells; test: Cell invasion, Corning Matrigel Invasion Chamber; assay type: cell-based; settings: 2 μM, 16 hours, FIG. 5
# Protocol: 1×10^5 cells/500 μL of PK-1 cells were seeded on top of the insert.
# [8] = tested on: PK-1 cells; test: Cellular aging: morphology and SA-β-Gal staining; assay type: cell-based; settings: 2 μM
# Protocol: In this example, an aging of cells by BLU9931 was examined. […] This morphological change was considered to be due to cellular aging. The present inventors measured the activity of senescence-associated β-galactosidase (SA-β-Gal), a marker of cellular aging.
# After staining, nuclear staining was performed with DAPI.
# [9] = tested on: phosphorylation of H2A.X; test: DNA damage by phosphorylation of H2A.X (immunofluorescence); assay type: cell-based; settings: incubation time increased from 3 days to 7 days; FIG. 7
# Protocol: BLU9931-treated cells were incubated with anti-γHA2.X mouse monoclonal antibody at 4° C. overnight. Cells were treated with Alexa-Fluor-conjugated secondary antibodies and nuclear staining was performed with DAPI.
# [10] = tested on: FGFR1-3; settings: general statement in the description, no test shown; cited from earlier work
smiles,measurement,setting,value
C=CC(=O)Nc1cccc(C)c1Nc1ncc2cc(-c3c(Cl)c(OC)cc(OC)c3Cl)ccc2n1 [BLU9931],cell proliferation,[1],suppressed
same,cell proliferation,[2],no effect
same,"apoptosis, necrosis, or cell damage observed in cells",[3],≤ 2%
same,cytotoxicity,[3],no significant effects
same,number of cells in S phase,[4]; 20.7% without,13.5%
same,number of cells in G0/G1 phase,[4]; 60.7% without,70.1%
same,expression of AKT,[5],decreased
same,expression of ERK,[5],decreased
same,expression of STAT3,[5],decreased
same,expression of AKT,[6],not decreased
same,expression of ERK,[6],not decreased
same,expression of STAT3,[6],not decreased
same,cell invasion,[7],inhibited
same,number of SA-β-Gal positive cells compared to the control cells,[8]; FIG. 6,increased
same,cell morphology compared to the control cells,"[8]; PK-1 cells, 1 week, FIG. 6A",larger and flattened
same,DNA damage of the cells,[9],progressed
same,inhibition of FGFR1-3,[10],does not inhibit
